Assay results as given in US8895568B2, “Compositions comprising substituted pteridines as agrochemicals” (Dow AgroSciences LLC, priority 2009, dated 2014).
Like-named read-outs stand apart in the source and are kept apart here.

How the values were obtained:
Type in all cases: in vivo
Colletotricum lagenarium = test: Cucumber Anthracnose (COLLLA), foliar spray, percent disease control
Cochliobolus sativus = test: Spot Blotch of Wheat (COCHSA), foliar spray, percent disease control; conditions: Bipolaris sorokiniana, read-out: COCHSA percent control
[1] = tested on: DROSME, AEDSAE, LAPHEG, or HELIVI; test: Insecticidal activity, active if any of DROSME, AEDSAE, LAPHEG or HELIVI was controlled at 80% or more; conditions: read-out: >80% mortality on any insect species @ 4000 ppm
[2] = tested on: Pseudoperonospora cubensis; test: Cucumber Downy Mildew (PSPECU), foliar spray, percent disease control; conditions: read-out: PSPECU percent control

Compound	pest or weed control at 200 µg/mL (Colletotricum lagenarium; foliar)	pest or weed control at 200 µg/mL (Cochliobolus sativus; foliar)	pest or weed control at 4000 ppm [1]	pest or weed control at 200 µg/mL ([2]; foliar)	pest or weed control at 200 µg/mL (Colletotricum lagenarium; foliar spray)	pest or weed control at 200 µg/mL (Cochliobolus sativus; foliar spray)	pest or weed control at 200 µg/mL ([2]; foliar spray)
Cc1ccc(Oc2ccc(CCNc3ncnc4nccnc34)cc2)cc1 [Compound 136]	50 to 79%	0 to 49%	> 80%	80 to 100%	–	–	–
FC(F)(F)c1ccnc(Oc2ccc(CCNc3ncnc4nccnc34)cc2)c1 [Compound 2, pteridin-4-yl-{2-[4-(4-trifluoromethylpyridin-2-yloxy)-phenyl]-ethyl}-amine]	80 to 100%	50 to 79%	> 80%	80 to 100%	–	–	–
c1cnc(Oc2ccc(CCNc3ncnc4nccnc34)cc2)nc1 [Compound 15]	0 to 49%	0 to 49%	> 80%	80 to 100%	–	–	–
COC(=O)c1cc(CCNc2ncnc3nccnc23)ccc1Oc1cc(C(F)(F)F)ccn1 [Compound 213, 5-[2-(Pteridin-4-ylamino)-ethyl]-2-(4-trifluoromethyl-pyridin-2-yloxy)-benzoic acid, methyl ester]	–	–	> 80%	–	0 to 49%	0 to 49%	80 to 100%
Cc1cc(Oc2cc(C(F)(F)F)ccn2)c(C)cc1CCNc1ncnc2nccnc12 [Compound 152]	0 to 49%	0 to 49%	> 80%	80 to 100%	–	–	–
Cc1cc(CCNc2ncnc3nccnc23)ccc1Oc1c(F)cnc(C(F)(F)F)c1F [Compound 166]	50 to 79%	0 to 49%	> 80%	80 to 100%	–	–	–
COc1cc(CCNc2ncnc3nccnc23)ccc1Oc1ccc(C(F)(F)F)cn1 [Compound 49]	50 to 79%	50 to 79%	> 80%	80 to 100%	–	–	–
CC(C)OC(=O)c1cnc(Oc2ccc(CCNc3ncnc4nccnc34)cc2)c(Cl)c1 [Compound 164]	0 to 49%	0 to 49%	> 80%	0 to 49%	–	–	–
COc1cc(CCNc2ncnc3nccnc23)ccc1Oc1cc(C(C)(F)F)ccn1 [Compound 170, (2-{4-[4-(1,1-difluoroethyl)-pyridin-2-yloxy]-3-methoxyphenyl}-ethyl)-pteridin-4-yl-amine]	0 to 49%	0 to 49%	> 80%	80 to 100%	–	–	–
COc1cc(CCNc2ncnc3nccnc23)ccc1Oc1cc(C(C)C)ccn1 [Compound 204]	–	–	> 80%	–	0 to 49%	0 to 49%	80 to 100%
Cc1nc(NCCc2ccc(Oc3cc(C(F)(F)F)ccn3)cc2)c2nc(C)c(C)nc2n1 [Compound 215]	–	–	> 80%	–	0 to 49%	0 to 49%	80 to 100%
CC(Sc1ncnc2nccnc12)c1cccc(C(F)(F)F)c1 (stereo not shown) [Compound 79]	0 to 49%	0 to 49%	> 80%	0 to 49%	–	–	–
Cc1cnc2ncnc(NCCc3ccc(Oc4nccc(C(F)(F)F)n4)cc3)c2n1 [Compound 55]	50 to 79%	0 to 49%	> 80%	80 to 100%	–	–	–
COc1cc(CCNc2ncnc3nccnc23)ccc1Oc1ncc(C(F)(F)F)cc1F [Compound 130]	0 to 49%	0 to 49%	> 80%	80 to 100%	–	–	–
CC(Nc1ncnc2nccnc12)c1ccc(Oc2cc(C(F)(F)F)ccn2)cc1 (stereo not shown) [Compound 82]	0 to 49%	0 to 49%	> 80%	80 to 100%	–	–	–
CCOc1cccc(Oc2ccc(CCNc3ncnc4nccnc34)cc2)n1 [Compound 12, {2-[4-(6-Ethoxypyridin-2-yloxy)-phenyl]-ethyl}-pteridin-4-yl-amine]	0 to 49%	0 to 49%	> 80%	80 to 100%	–	–	–
Fc1cc(F)c(Oc2ccc(CCNc3ncnc4nccnc34)cc2)nc1F [Compound 150]	0 to 49%	0 to 49%	> 80%	80 to 100%	–	–	–
Cc1cc(Oc2cc(C(C)(F)F)ccn2)c(C)cc1CCNc1ncnc2nccnc12 [Compound 194]	80 to 100%	0 to 49%	> 80%	80 to 100%	–	–	–
Cc1c(CCNc2ncnc3nccnc23)ccc(Oc2ncc(C(F)(F)F)cc2F)c1C [Compound 148]	0 to 49%	0 to 49%	> 80%	80 to 100%	–	–	–

Compound	pest or weed control at 200 µg/mL (Colletotricum lagenarium; foliar)	pest or weed control at 200 µg/mL (Cochliobolus sativus; foliar)	pest or weed control at 4000 ppm [1]	pest or weed control at 200 µg/mL ([2]; foliar)	pest or weed control at 200 µg/mL (Colletotricum lagenarium; foliar spray)	pest or weed control at 200 µg/mL (Cochliobolus sativus; foliar spray)	pest or weed control at 200 µg/mL ([2]; foliar spray)
COc1cc(C(F)(F)F)cc(Oc2ccc(CCNc3ncnc4nc(C)c(C)nc34)cc2)n1 [Compound 198]	0 to 49%	0 to 49%	> 80%	0 to 49%	–	–	–
FC(F)(F)COc1ccnc(Oc2ccc(CCNc3ncnc4nccnc34)cc2)c1 [Compound 96, Pteridin-4-yl-(2-{4-[4-(2,2,2-trifluoroethoxy)-pyridin-2-yloxy]-phenyl}-ethyl)-amine]	0 to 49%	0 to 49%	> 80%	80 to 100%	–	–	–
COc1cccc(Oc2ccc(CCNc3ncnc4nccnc34)cc2)n1 [Compound 10, {2-[4-(6-Methoxypyridin-2-yloxy)-phenyl]-ethyl}-pteridin-4-yl-amine]	0 to 49%	0 to 49%	> 80%	80 to 100%	–	–	–
COc1ccc(CCNc2ncnc3nc(C)c(C)nc23)cc1 [Compound 131]	0 to 49%	0 to 49%	> 80%	80 to 100%	–	–	–
FC(F)(F)c1nc(Oc2ccc(CCNc3ncnc4nccnc34)cc2)ccc1Cl [Compound 92]	0 to 49%	0 to 49%	> 80%	80 to 100%	–	–	–
N#Cc1ccc(Oc2ccc(CCNc3ncnc4nccnc34)c(F)c2)nc1 [Compound 104]	0 to 49%	0 to 49%	> 80%	80 to 100%	–	–	–
COCCOc1cc(C(F)(F)F)cc(Oc2ccc(CCNc3ncnc4nccnc34)cc2)n1 [Compound 91, (2-{4-[6-(2-Methoxyethoxy)-4-trifluoromethyl-pyridin-2-yloxy]-phenyl}-ethyl)-pteridin-4-yl-amine]	0 to 49%	0 to 49%	> 80%	80 to 100%	–	–	–
Cc1cc(Oc2cc(C(F)(F)F)ccn2)ccc1CCNc1ncnc2nccnc12 [Compound 129]	50 to 79%	50 to 79%	> 80%	80 to 100%	–	–	–
FC(F)(F)c1ccnc(Oc2ccc(CCNc3ncnc4nccnc34)cc2Cl)c1 [Compound 187]	80 to 100%	0 to 49%	> 80%	80 to 100%	–	–	–
CC(Nc1ncnc2nccnc12)c1ccc(Oc2ccc(C(F)(F)F)cn2)cc1 (stereo not shown) [Compound 67]	0 to 49%	0 to 49%	> 80%	80 to 100%	–	–	–
Cc1cc(CCNc2ncnc3nccnc23)ccc1Oc1cc(C#N)ccn1 [Compound 155]	50 to 79%	0 to 49%	> 80%	80 to 100%	–	–	–
Cc1cnc2ncnc(NCCc3ccc(Oc4cc(C(F)(F)F)ccn4)cc3)c2n1 [Compound 76]	0 to 49%	0 to 49%	> 80%	80 to 100%	–	–	–
Fc1cnc(Oc2ccc(CCNc3ncnc4nccnc34)cc2)c(F)c1C(F)(F)F [Compound 106]	0 to 49%	0 to 49%	> 80%	80 to 100%	–	–	–
CC(Nc1ncnc2nccnc12)c1ccc(Oc2nccc(C(F)(F)F)n2)cc1 (stereo not shown) [Compound 68]	0 to 49%	0 to 49%	> 80%	80 to 100%	–	–	–
FC(F)(F)c1nc(Oc2ccc(CCNc3ncnc4nccnc34)cc2)sc1Cl [Compound 128]	0 to 49%	0 to 49%	> 80%	80 to 100%	–	–	–
COc1cc(CCNc2ncnc3nccnc23)ccc1Oc1nccc(C(F)(F)F)n1 [Compound 97]	0 to 49%	0 to 49%	> 80%	80 to 100%	–	–	–
CC(C)(C)OC(=O)c1ccnc(Oc2ccc(CCNc3ncnc4nccnc34)cc2)c1 [Compound 192]	80 to 100%	0 to 49%	> 80%	80 to 100%	–	–	–
COC(=O)c1cnc(Oc2ccc(CCNc3ncnc4nccnc34)cc2)cc1C(F)(F)F [Compound 202]	–	–	> 80%	–	0 to 49%	0 to 49%	80 to 100%
